Assay results as given in patent US11548894B2, “Benzamide or benzamine compounds useful as anticancer agents for the treatment of human cancers” (The Board of Regents of the University of Texas System, priority 2015, dated 2023).
Where two headings read alike, the source gives them in different places.

Legend:
[1] = S9 Metabolism Assay (half-life by substrate depletion); format: in vitro ADME; settings: female, ICR/CD-1, S9 fractions, pH 7.5; mouse S9, 2 μM compound; time plotted in min; read-out: S9 T1/2
Protocol: Female ICR/CD-1 mouse S9 fractions were purchased from Celsis/In Vitro Technologies (Baltimore, Md.). 25 μl (0.5 mg) of S9 protein was added to a 15 ml glass screw cap tube. 350 μl of a 50 mM Tris, pH 7.5 solution, containing the compound of interest was added on ice. The final concentration of compound after addition of all reagents was 2 μM. 125 μl of an NADPH-regenerating system (1.7 mg/ml NADP, 7.8 mg/ml glucose-6-phosphate, 6 U/ml glucose-6-phosphate dehydrogenase in 2% w/v NaHCO3/10 mm MgCl2) was added for analysis of Phase I metabolism. Uridine 5′-diphospho-α-D-glucuronic acid (UDPGA 1.9 mg/ml) and 3′-phosphoadenosine-5′-phosphosulphate (PAPS, 100 mg/ml) were additionally added for phase II reactions. The tube was then placed in a 37° C. shaking water bath. At varying time points after addition of phase I and phase II cofactors, the reaction was stopped by the addition of 0.5 ml of methanol containing 0.2% formic acid and 200 ng/ml internal standard (either n-benzylbenzamide or tolbutamide, Sigma, St. Louis, Mo.). The samples were incubated 10′ at RT and then spun at 16,100×g for 5 min in a microcentrifuge. The supernatant was analyzed by LC-MS/MS. Metabolism of 7-ethoxycoumarin was used to monitor […] performance. Analytical methods were developed for each compound using an Applied Biosystems (Foster City, Calif.) 4000-QTrap, a combination triple quadrupole/ion trap instrument. The parent ion and the two most prominent daughter ions were followed to confirm compound identity, although only the most abundant daughter was used for quantitation. A Shimadzu (Columbia, Md.) Prominence LC with Agilent C18 XDB column (5 micron packing; 50×4.6 mm) was used for chromatography.
The method described in McNaney, et al (McNaney, C A, D M Drexler, S Hnatyshyn, T A Zvyaga, J O Knipe, J V Belcastro, and M Sanders. 2008. An automated liquid chromatography-mass spectrometry process to determine metabolic stability half-life and intrinsic clearance of drug candidates by substrate depletion. Assay and Drug Development Technologies 6:121-129. Determination of Plasma and Brain Pharmacokinetics) was used with modification for determination of metabolic stability half-life by substrate depletion. A “% remaining” value was used to assess metabolic stability of a compound over time. The LC/MS/MS peak area of the incubated sample at each time point was divided by the LC/MS/MS peak area of the time 0 (TO) sample and multiplied by 100. The natural Log (LN) of the % remaining of compound was then plotted versus time (in min) and a linear regression curve plotted going through y-intercept at LN(100).

Mut6 cells (TD-NSC) = assay: luminescence-based Celltiter-Glo cell viability assay (ATP levels) on Mut6 tumor derived neuronal stem cells; set-up: species or system mouse; settings: ATP activity as measure of viability, 96 hours, read-out: EC50 (TD-NSC)
Text: A mouse colony with 100% incidence of GBM and with conditional knockout of p53, pTEN and NF1 genes (Mut6; glioblastoma) was used to isolate primary neuronal stem cells from GBM tumors cultured in 5% Oxygen and in serum free media with defined growth factors. Primary cells from multiple tumors were pooled for high throughput screening with controls against the University of Texas Southwestern (UTSW) compound file, which encompasses ˜200,000 synthetic compounds that represent a large chemical space from several commercial vendors, including 1200 marketed drugs from the Prestwick Chemical Library®, and 600 compounds that went to pre-clinical tests from the NIH library.
A luminescence-based Celltiter-Glo® assay was performed to measure cell viability, using ATP levels as the readout. In brief, opaque-walled multiwell plates with Mut6 cells in culture medium (25 μl per well, 384-well plates) were prepared. Control wells containing medium without cells were prepared to obtain a value for background luminescence. Test compounds were added to experimental wells, and incubated according to culture protocol. The plate and its contents were incubated at 37° C., 5% […] for 96 hours. An ATP standard curve was generated immediately prior to adding the CellTiter-Glo® Reagent. A volume of CellTiter-Glo® Reagent equal to the volume of cell culture medium present in each well (25 μl of reagent to 25 μl of medium containing cells for a 384-well plate) was added. The contents were mixed for 2 minutes on an orbital shaker to induce cell lysis. The plate was allowed to incubate at room temperature for 10 minutes to stabilize the luminescent signal and luminescence recorded. (e.g. GloMax®, Lumistar, SPECTROstar, PHERAstar FS).
Compound 4C12 served as initial lead compound for analog development and for additional studies. […] See Wager, T T et al, “Moving beyond rules: the development of a central nervous system multi-parameter-optimization (CNS MPO) approach to enable alignment of drug-like properties,” ACS Chem. Neurosci. 1(6): 435-49 (2010). IC50 curves for the analog compounds plotted as ATP activity (y axis, a measure of viability) vs. concentration (nM) (x-axis) are shown in FIG. 9.

| Structure (SMILES) | half-life at 2 μM [1] | EC50 (Mut6 cells (TD-NSC); Mus musculus, 96 h) | EC50 (Mut6 cells (TD-NSC)) |
| --- | --- | --- | --- |
| CCN1CCC[C@@H]1CNC(=O)c1ccc(Sc2ccc(F)cc2)c([N+](=O)[O-])c1 [DS-1-031, (R)—N-((1-ethylpyrrolidin-2-yl)methyl)-4-((4-fluorophenyl)thio)-3-nitrobenzamide] | 1.89 h | 33 nM | – |
| CCN1CCCC1CNC(=O)c1ccc(Sc2ccc(F)cc2)c([N+](=O)[O-])c1 (stereo not shown) [DS-1-033, N-((1-ethylpyrrolidin-2-yl)methyl)-4-((4-fluorophenyl)thio)-3-nitrobenzamide] | 1.98 h | – | 45 nM |
| CCN(CC)CCNC(=O)c1ccc(Sc2ccc(F)cc2)c([N+](=O)[O-])c1 [DS-1-043, N-(2-(diethylamino)ethyl)-4-((4-fluorophenyl)thio)-3-nitrobenzamide] | 0.75 h | – | 22 nM |
| CCN1CCC[C@H]1CNC(=O)c1ccc(Sc2ccc(F)cc2)c([N+](=O)[O-])c1 [DS-1-053, (S)—N-((1-ethylpyrrolidin-2-yl)methy)-4-((4-fluorophenyl)thio)-3-nitrobenzamide] | 1.1 h | 31 nM | – |
| CCN1CCCC1CNC(=O)c1ccc(Sc2ccccc2)c([N+](=O)[O-])c1 (stereo not shown) [DS-1-055, N-((1-ethylpyrrolidin-2-yl)methyl)-3-nitro-4-(phenylthio)benzamide] | 0.59 h | 50 nM | – |
| CN1CCCC1CCNC(=O)c1ccc(Sc2ccc(F)cc2)c([N+](=O)[O-])c1 (stereo not shown) [DS-1-061, 4-((4-fluorophenyl)thio)-N-(2-(1-methylpyrrolidin-2-yl)ethyl)-3-nitrobenzamide] | 1.75 h | 79 nM | – |
| O=C(NCCN1CCCC1)c1ccc(Sc2ccc(F)cc2)c([N+](=O)[O-])c1 [DS-1-063, 4-((4-fluorophenyl)thio)-3-nitro-N-(2-(pyrrolidin-1-yl)ethyl)benzamide] | 3.12 h | 52 nM | – |
| CCN1CCCC1CNC(=O)c1ccc(Sc2cccc(F)c2)c([N+](=O)[O-])c1 (stereo not shown) [DS-1-069, N-((1-ethylpyrrolidin-2-yl)methyl)-4-((3-fluorophenyl)thio)-3-nitrobenzamide] | 0.587 h | 88 nM | – |
| CCN1CCCC1CNCc1ccc(Sc2ccc(F)cc2)c([N+](=O)[O-])c1 (stereo not shown) [DS-1-079, 1-(1-ethylpyrrolidin-2-yl)-N-(4-((4-fluorophenyl)thio)-3-nitrobenzyl)methanamine] | 0.357 h | 36 nM | – |
| O=C(NC[C@@H]1CCCN1)c1ccc(Sc2ccc(F)cc2)c([N+](=O)[O-])c1 [DS-1-085, (S)-4-((4-fluorophenyl)thio)-3-nitro-N-(pyrrolidin-2-ylmethyl)benzamide] | 4 h | 132 nM | – |
| CCN1CCCC1CNC(=O)c1ccc(Sc2ccc(F)cc2F)c([N+](=O)[O-])c1 (stereo not shown) [DS-1-125, 4-((2,4-difluorophenyl)thio)-N-((1-ethylpyrrolidin-2-yl)methyl)-3-nitrobenzamide] | 1.46 h | 51 nM | – |
| CCN1CCCC1CNC(=O)c1ccc(Sc2ccncc2)c([N+](=O)[O-])c1 (stereo not shown) [DS-1-129, N-((1-ethylpyrrolidin-2-yl)methyl)-3-nitro-4-(pyridin-4-ylthio)benzamide] | 1.54 h | 150 nM | – |
| CCN1CCCC1CNC(=O)c1ccc(SCc2ccc(F)cc2)c([N+](=O)[O-])c1 (stereo not shown) [DS-1-131, N-((1-ethylpyrrolidin-2-yl)methyl)-4-((4-fluorobenzyl)thio)-3-nitrobenzamide] | 1.6 h | 35 nM | – |
| CCN1CCCC1CNC(=O)c1ccc(Sc2ccc(OC)cc2)c([N+](=O)[O-])c1 (stereo not shown) [DS-1-133, N-((1-ethylpyrrolidin-2-yl)methyl)-4-((4-methoxyphenyl)thio)-3-nitrobenzamide] | 0.802 h | 62 nM | – |
| CCN1CCCC1CNC(=O)c1ccc(Sc2ccc(Cl)cc2)c([N+](=O)[O-])c1 (stereo not shown) [DS-1-163, 4-((4-chlorophenyl)thio)-N-((1-ethylpyrrolidin-2-yl)methyl)-3-nitrobenzamide] | 1.48 h | 51 nM | – |
| CCN1CCCC1CNC(=O)c1ccc(Sc2ccc(F)cc2)c(C#N)c1 (stereo not shown) [DS-1-227, 3-cyano-N-((1-ethylpyrrolidin-2-yl)methyl)-4-((4-fluorophenyl)thio)benzamide] | 1.08 h | 53 nM | – |
| CC1C2CCCN2CCN1C(=O)c1ccc(Sc2ccc(F)cc2)c([N+](=O)[O-])c1 (stereo not shown) [DS-1-279, (4-((4-fluorophenyl)thio)-3-nitrophenyl)(1-methylhexahydropyrrolo[1,2-a]pyrazin-2(1H)-yl)methanone] | 0.445 h | 58 nM | – |
| O=C(NCCCN1CCOCC1)c1ccc(Sc2ccc(F)cc2)c([N+](=O)[O-])c1 [DS-1-283, 4-((4-fluorophenyl)thio)-N-(3-morpholinopropyl)-3-nitrobenzamide] | 1.56 h | 42 nM | – |
| CCN1CCCC1CNC(=O)c1ccc(Sc2ccc(F)cc2)c(S(C)(=O)=O)c1 (stereo not shown) [DS-1-301, N-((1-ethylpyrrolidin-2-yl)methyl)-4-((4-fluorophenyl)thio)-3-(methylsulfonyl)benzamide] | > 4 h | 236 nM | – |
| CCN1CCCC1CNC(=O)c1ccc(Oc2ccc(F)cc2)c(C#N)c1 (stereo not shown) [DS-1-311, 3-cyano-N-((1-ethylpyrrolidin-2-yl)methyl)-4-(4-fluorophenoxy)benzamide] | 1.96 h | – | – |
| N#Cc1cc(C(=O)NCCN2CCOCC2)ccc1Sc1ccc(F)cc1 [DS-2-027, 3-cyano-4-((4-fluorophenyl)thio)-N-(2-morpholinoethyl)benzamide] | 0.668 h | – | – |
| N#Cc1cc(C(=O)NCCN2CCOCC2)ccc1Oc1ccc(F)cc1 [DS-2-045, 3-cyano-4-(4-fluorophenoxy)-N-(2-morpholinoethyl)benzamide] | 1.65 h | 74 nM | – |
| CCN1CCCC1CNC(=O)c1ccc(Sc2ccc(F)cc2)c(F)c1 (stereo not shown) [DS-2-053, N-((1-ethylpyrrolidin-2-yl)methyl)-3-fluoro-4-((4-fluorophenyl)thio)benzamide] | 0.683 h | 87 nM | – |
| C#CCN(CC)CCNC(=O)c1ccc(Sc2ccc(F)cc2)c(N=[N+]=[N-])c1 [ww3-77, 3-azido-N-(2-(ethyl(prop-2-yn-1-yl)amino)ethyl)-4-((4-fluorophenyl)thio)benzamide] | – | 239 nM | – |
| C#CCN(CCNC(=O)c1ccc(Sc2ccc(F)cc2)c([N+](=O)[O-])c1)CCOC(=O)c1ccc(C(=O)c2ccccc2)cc1 [ww3-80, 2-((2-(4-((4-fluorophenyl)thio)-3-nitrobenzamido)ethyl)(prop-2-yn-1-yl)amino)ethyl 4-benzoylbenzoate] | – | 161 nM | – |
